The source of these data is PubChem BioAssay AID493002 (Sanford-Burnham Center for Chemical Genomics, 2010).

For this assay, the system named is S. cerevisiae tim23-1 mutant growth, luminescence. Briefly: tim23-1 mutant yeast growth inhibitors, dose response, luminescence, uHTS hits (AID 493002).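 Also: yeast grown roughly 22 hours at 25 °C before the luminescence read.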

Molecules are shown by their SMILES.

Broadly, the IC50 is the concentration at which inhibition is half-maximal. For `Cc1ccccc1C(=O)Oc1cccc2c(O)cccc12`, the IC50 was 8.53 µM. Under `C[C@@]12C(=O)Nc3ccc(Br)cc3C(=O)N1[C@H]1c3ccccc3OC[C@@H]1[C@@H]2c1ccccc1` stands 2.66 µM; under `Nc1cccc(-c2nc3ccc(C(=O)c4ccccc4)cc3[nH]2)c1`, 10.7 µM.

`Cc1ccc(C(=O)Nc2nc(C(C)(C)C)cs2)s1`: the IC50 is 13.6 µM. Under `C=CCN=c1scc(-c2ccco2)n1/N=C/c1ccc(O)c(O)c1O` stands 16.1 µM.

On to `CC(C)Cn1cnc2c(c(-c3ccccc3)c(-c3ccccc3)n2Cc2ccco2)c1=N`, for which the IC50 was 9.48 µM.

Regarding `CCOC(=O)c1c(C)oc2c(F)c(F)c(F)c(F)c2c1=O`, the IC50 was 13.1 µM. Turning to `CCn1c(N2CCN(S(=O)(=O)c3ccc(OC)cc3)CC2)nc2ccccc21`, the IC50 is 8.88 µM. Under `Cc1ccc(OCc2cc(C(=O)NC3CCCCC3)no2)cn1` stands 15.4 µM; under `O=C(Nc1ccc2nc(-c3ccc(Br)o3)[nH]c2c1)c1ccco1`, 5.88 µM. For `CCCOc1cccc(C(=O)N/N=C/c2coc3ccccc3c2=O)c1`, the IC50 was 13.4 µM. Under `O=C(Nc1oc2ccc(Cl)cc2c(=O)c1-c1ccc(F)cc1)c1ccco1` stands 17.1 µM; under `CCCCCOC(=O)Cc1c(C)nc(-c2ccccc2)[nH]c1=O`, 13.2 µM; under `NC(=S)NNc1cc(Cl)cc(Cl)c1`, 10.5 µM. Consider `Cc1ccc(O)c(C(=O)c2cnn(C(=O)Cc3csc(C)n3)c2)c1`, for which the IC50 is 12.4 µM. Turning to `CC(=O)Nc1cccc(-c2cc(-c3c(Cl)cccc3Cl)no2)c1`, the IC50 was 11.1 µM.

As to `CCN(CC)S(=O)(=O)c1ccc(C(=O)OCn2nnc3ccccc3c2=O)cc1`, the IC50 was 9.32 µM.

With `Cc1ccc(S(=O)(=O)Oc2ccccc2C=C2C(=O)N(C)C(=O)N(C)C2=O)cc1`, the IC50 was 4.22 µM. For the compound `COc1ccc(/C=C(\C#N)c2nc3ccccc3[nH]2)cc1O`, the IC50 was 14.8 µM. Next, `CC1CCc2c(sc3nc(C(C)(C)C)nc(N4CCN(C(=O)CCl)CC4)c23)C1` (centres undefined): 8.61 µM. Under `CCc1ccc2oc(-c3cc(N)ccc3Cl)nc2c1` stands 6.18 µM; under `CCN(CC)c1ccc(C(=O)N/N=C/c2ccccc2OC(F)F)cc1`, 15.1 µM; under `O=C(Nc1scc(-c2ccccc2)c1C(=O)O)c1ccccc1F`, 12.2 µM. Under `O=C(Nc1ccc2oc(-c3ccccc3)nc2c1)c1cccnc1` stands 5.53 µM. In the case of `C/C=C/c1ccc(OCCOc2cc(C=O)ccc2OC)c(OC)c1`, the IC50 is 8.44 µM. Under `COn1c(=O)c(-c2cccs2)[n+]([O-])c2ccccc21` stands 3.96 µM. Next, `COc1cc(NC(=O)c2cccs2)ccc1NC(=O)c1ccccc1Cl`: 6.75 µM; `O=CN(/C=C1\Sc2ccccc2C1=O)Cc1ccccc1`: 7.02 µM; `CCc1ccc(NC(=O)/C(C#N)=C/c2ccncc2)cc1`: 4.41 µM. Under `COc1cc2c3c(c1)C(C)CC(C)(C)N3C(=O)C2=O` (centres undefined) stands 27.2 µM; under `CCOC(=O)/C(=C/c1ccc(OC(=O)c2ccncc2)cc1)C(C)=O`, 11 µM; under `Cc1nc2ccccc2n1/N=C/c1ccc([N+](=O)[O-])s1`, 1.58 µM. Consider `O=C1OC(c2ccccc2)=N/C1=C\C=C\c1ccco1`, for which the IC50 is 5.33 µM. Under `O=C(O)c1ccc(N/N=C/c2ccc(-c3ccc(Br)cc3)o2)cc1` stands 16.2 µM; under `O=C(c1cc(-c2ccc(O)cc2)on1)N1CCc2ccccc2C1`, 8.85 µM. Next, `Cc1cc(C(=O)COC(=O)c2ccc([N+](=O)[O-])o2)c(C)n1CC1CCCO1` (centres undefined): 10.1 µM; `COC(=O)c1ccc(-c2ccc(C(c3c(C)[nH][nH]c3=O)c3c(C)[nH][nH]c3=O)o2)cc1`: 11.2 µM. Next, `CSc1nnc(C(C)(C)C)c(=O)n1/N=C/c1ccccc1`: 13.6 µM; `O=C(NC1CCCCC1)c1c(O)nc2sccn2c1=O`: 16.4 µM; `Nc1ccc(C(=O)Nc2nc3ccccc3s2)cc1`: 10.4 µM. In the case of `O=Cc1ccccc1OCc1ccc2c(c1)OCO2`, the IC50 was 6.59 µM. Take `CCOc1ccc(N=C(C)C2=C(O)c3ccccc3C2=O)cc1`: the IC50 was 11.2 µM. Under `CCOc1cc2c3c(c1)C(C)CC(C)(C)N3C(=O)C2=O` (centres undefined) stands 14.1 µM; under `CCOC(=O)NNc1ccc2nonc2c1[N+](=O)[O-]`, 6.6 µM; under `O=C(Nc1ccc(-c2cn3c(n2)SCC3)cc1)c1ccco1`, 8.88 µM. Next, `CCOC(=O)c1c(C=O)c2sc(C)cc2n1C`: 18 µM; `O=c1c(-c2ccc3c(c2)OCCO3)c(C(F)(F)F)oc2cc(O)cc(O)c12`: 12.6 µM; `CCCCn1c(N)c(N(CCC(C)C)C(=O)c2ccc3c(c2)OCO3)c(=O)[nH]c1=O`: 11.1 µM. For the compound `CSc1nnc(C)c(/C=C/NOCc2ccc(Cl)cc2)n1`, the IC50 is 6.13 µM. Regarding `O=C(/C=C/c1ccccc1Cl)Nc1ccccc1`, the IC50 was 12.2 µM. Under `Cc1cccc(OCCN2C(=O)C(=O)c3cc(C)ccc32)c1` stands 9.52 µM; under `N#C/C(=C\c1ccc(OCc2ccccc2)cc1)C(N)=O`, 11.7 µM.

Take `COc1ccc(OC)c(-c2csc(NC(=O)Cc3ccc(F)cc3)n2)c1`: the IC50 is 9.63 µM.

Consider `CCN(CC)c1ccc(C(=O)Nc2cccc(F)c2)cc1`, for which the IC50 is 5.19 µM.

Turning to `COc1ccccc1C(=O)Nc1nnc(-c2ccc3c(c2)CCCC3)o1`, the IC50 is 13.8 µM. Next, `CCC(C)c1ccc(NC(=O)COC(=O)C2CCCC2)cc1` (centres undefined): 10.7 µM; `O=C(Nc1ccc(Nc2ccccc2)cc1)c1ccccc1F`: 21.9 µM. Next, `O=C(/C=C/c1ccccc1)NCCc1c[nH]c2ccccc12`: 15 µM; `c1ccc(-c2nc(NCc3cccs3)c3ccccc3n2)cc1`: 12.7 µM. Next, `Cc1ccc2c(c1)COc1c3ccc(C(=O)NC(C)C)cc3nn1-2`: 24 µM; `O=C(Nc1ccc2nc(-c3ccc(Br)o3)[nH]c2c1)c1cccs1`: 1.35 µM; `Cc1ccc(S(=O)(=O)N[C@@H](Cc2ccccc2)C(=O)CCl)cc1`: 2.18 µM. Consider `C#CCOCCOCCOCCNc1nc(N2CCN(C(=O)CCCCCCCCCCNC(=O)[C@H](CCCCN)n3cc(CCO)nn3)CC2)nc(N2CCN(C(=O)CCCCCCCCCCNC(=O)[C@H](CCCCN)n3cc(C[C@@H](C)CC)nn3)CC2)n1`, for which the IC50 was 17.1 µM.

In the case of `CCn1ncc([N+](=O)[O-])c1C(=O)Nc1nc2cccc(C)c2s1`, the IC50 was 17.7 µM.

Regarding `Cc1cccn2c(=O)c(C(=O)NC3CCCCC3)c(O)nc12`, the IC50 was 15.6 µM. Next, `Cn1c(/C(C#N)=C/c2ccncc2)nc2ccccc21`: 16.3 µM.

Regarding `Cc1ccc(Nc2nc(Cl)c(C=O)s2)cc1Cl`, the IC50 is 5.76 µM. In the case of `N#C/C(=C\c1ccc(Cl)cc1)C(=O)Nc1cccnc1`, the IC50 was 5.72 µM. Under `O=c1oc(-c2ccccc2F)nc2c1cnn2-c1ccccc1` stands 7.71 µM; under `CN(C(=O)c1ccco1)c1nnc(C23CC4CC(CC(C4)C2)C3)s1`, 20.8 µM. Under `Cc1cccc(N=Nc2cnc(N)s2)c1` stands 15.1 µM; under `CSC1=N/C(=C\c2ccc(C)cc2)C(=O)S1`, 10.3 µM. In the case of `O=C(Nc1nc2c(F)cccc2s1)c1ccco1`, the IC50 is 16.7 µM. Under `Cc1occc1C(=O)N/N=C/C(Br)=C/c1ccccc1` stands 9.06 µM; under `Oc1ccc(Oc2ccc(Oc3ccc(O)cc3)cc2)cc1`, 6.42 µM; under `CCOC(=O)c1c(-c2ccccc2)oc2ccc(O)cc12`, 7.92 µM. Take `Cc1ccc(-c2nc(CNC(=O)c3cc(C)on3)cs2)cc1`: the IC50 was 15 µM.

Consider `Cc1cccc(N2C(=O)c3ccc(Br)cc3C2=O)n1`, for which the IC50 is 12.7 µM. Next, `Cn1cccc1-c1nc2ccc(NC(=O)c3cccs3)cc2[nH]1`: 10.8 µM; `O=C(Nc1ccc(-c2cn3ccccc3n2)cc1)c1cccs1`: 2.92 µM. Consider `Cc1ccc(Nc2cc(C)c3ccc(O)cc3n2)cc1C`, for which the IC50 was 11.1 µM. Consider `Cc1cnc(NC(=O)c2cc3c(s2)CCCC3)s1`, for which the IC50 is 14.5 µM.

For `O=c1c2cc(Br)ccc2nc(-c2ccccc2)n1O`, the IC50 was 19.1 µM. Under `Cc1nn(CC(=O)Nc2nc3ccccc3s2)c(C)c1[N+](=O)[O-]` stands 8.41 µM; under `O=S(=O)(CCSc1ccccn1)c1nc2ccccc2s1`, 10 µM; under `COc1ccc(C(C[N+](=O)[O-])c2c(C)[nH]n(-c3ccccc3)c2=O)cc1` (centres undefined), 7.55 µM. Next, `CC(C)CN(C(=O)c1ccc2c(c1)OCCO2)c1c(N)n(Cc2ccccc2)c(=O)[nH]c1=O`: 14.2 µM; `O=C(c1ccc(-c2nc3ccccc3s2)s1)N1CCOCC1`: 19.2 µM; `CCCCCCn1c(=O)c(-c2ccccc2)c(O)c2ccccc21`: 8.95 µM. Next, `O=C(CCl)Nc1cccc(-c2cnc3ccccc3n2)c1`: 9.25 µM; `COc1ccc(C(=O)N/N=C\c2coc3ccc(Cl)cc3c2=O)cc1`: 8.27 µM; `COc1ccc(NCc2ccc([N+](=O)[O-])s2)cc1`: 6.99 µM.

As for `O=C(NCc1cccnc1)/C(=C\c1ccc(-c2ccc(Br)cc2)o1)S(=O)(=O)c1ccccc1`, the IC50 is 4.25 µM. Next, `COc1cccc(/C=N/NC(=O)c2cc(C34CC5CC(CC(C5)C3)C4)[nH]n2)c1`: 10.9 µM; `Cc1nc(-c2ccc(NC(=O)C3CC3)cc2)cs1`: 20.2 µM; `O=C(Nc1cc(-c2ccccc2)[nH]n1)c1ccccc1F`: 20.2 µM. Under `CC(C)CN1C(=O)c2ccc(NC(=O)c3ccco3)cc2C1=O` stands 20.2 µM; under `O=C(Nc1ccc(-c2cn3ccccc3n2)cc1)c1ccco1`, 6.01 µM; under `CC1(C)CC(=O)C=C(c2ccc(I)cc2)C1`, 14.8 µM.

In the case of `Cc1cccc(NC(=O)c2cc3ccccc3o2)c1`, the IC50 is 13 µM. Under `Cc1cccc(C)c1N1C(=O)CN(Cc2ccccc2)C1=S` stands 28.1 µM; under `Cc1cc(NC(=O)c2ccco2)sc1C`, 18 µM. `CC[C@@]1(c2ccccc2OC)ON(c2ccccc2C(F)(F)F)C1=O`: the IC50 is 5.91 µM. As to `COc1cccc2sc3cc(NCc4ccc5c(c4)OCO5)ccc3c(=O)c12`, the IC50 was 12.3 µM.
